Results published in patent US20070149779A1, “PRIMIDONE PROCESS AND COMPOSITIONS” (priority 2005, published 2007).
≈ marks a conversion by molar mass, not a printed value.

Experiments:
[1] = Bulk density, tapped density and Carr index of primidone and primidone granules; format: physicochemical; conditions: for Carr Index: percent compressibility from tapped and bulk density
Excerpt: “Carr index” as used herein is defined as the percent compressibility, that is a percentage ratio of the difference between tapped bulk density and initial bulk density to tapped bulk density.

[2] = cited from earlier work

| Bulk Density, (Db) [1] [g/mL] | Tapped density (Dt) [1] [g/mL] | Carr Index [1] [%] | SMILES | solubility in water [2] [µg/mL] |
| --- | --- | --- | --- | --- |
| 0.221 | 0.307 | 28 | CCC1(c2ccccc2)C(=O)NCNC1=O [Primidone Particle size D90 7.1 μm] | – |
| 0.850 | 0.905 | 6.1 | CCC1(c2ccccc2)C(=O)NCNC1=O [Primidone Particle size D90 307 μm] | – |
| – | – | – | CCC1(c2ccccc2)C(=O)NCNC1=O [Primidone, 5-ethyldihydro-5-phenyl-4,6 (1H, 5H pyrimidinedione)] | 600 (≈ 2750 µM) |
